# Results: ChEMBL document CHEMBL1201862, “PubChem BioAssay data set” (2004)
# Activity calls are given as the source filed them.
# How the values were obtained:
# [1] = target: T1, Sentrin-specific protease 7 (Homo sapiens, UniProt Q9BQF6); assay type: functional;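 also: Luminescence-based dose-response confirmation of ultra-high-throughput screening hits, measuring inhibition of SENP7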
# T1 sequence (Q9BQF6 whole entry): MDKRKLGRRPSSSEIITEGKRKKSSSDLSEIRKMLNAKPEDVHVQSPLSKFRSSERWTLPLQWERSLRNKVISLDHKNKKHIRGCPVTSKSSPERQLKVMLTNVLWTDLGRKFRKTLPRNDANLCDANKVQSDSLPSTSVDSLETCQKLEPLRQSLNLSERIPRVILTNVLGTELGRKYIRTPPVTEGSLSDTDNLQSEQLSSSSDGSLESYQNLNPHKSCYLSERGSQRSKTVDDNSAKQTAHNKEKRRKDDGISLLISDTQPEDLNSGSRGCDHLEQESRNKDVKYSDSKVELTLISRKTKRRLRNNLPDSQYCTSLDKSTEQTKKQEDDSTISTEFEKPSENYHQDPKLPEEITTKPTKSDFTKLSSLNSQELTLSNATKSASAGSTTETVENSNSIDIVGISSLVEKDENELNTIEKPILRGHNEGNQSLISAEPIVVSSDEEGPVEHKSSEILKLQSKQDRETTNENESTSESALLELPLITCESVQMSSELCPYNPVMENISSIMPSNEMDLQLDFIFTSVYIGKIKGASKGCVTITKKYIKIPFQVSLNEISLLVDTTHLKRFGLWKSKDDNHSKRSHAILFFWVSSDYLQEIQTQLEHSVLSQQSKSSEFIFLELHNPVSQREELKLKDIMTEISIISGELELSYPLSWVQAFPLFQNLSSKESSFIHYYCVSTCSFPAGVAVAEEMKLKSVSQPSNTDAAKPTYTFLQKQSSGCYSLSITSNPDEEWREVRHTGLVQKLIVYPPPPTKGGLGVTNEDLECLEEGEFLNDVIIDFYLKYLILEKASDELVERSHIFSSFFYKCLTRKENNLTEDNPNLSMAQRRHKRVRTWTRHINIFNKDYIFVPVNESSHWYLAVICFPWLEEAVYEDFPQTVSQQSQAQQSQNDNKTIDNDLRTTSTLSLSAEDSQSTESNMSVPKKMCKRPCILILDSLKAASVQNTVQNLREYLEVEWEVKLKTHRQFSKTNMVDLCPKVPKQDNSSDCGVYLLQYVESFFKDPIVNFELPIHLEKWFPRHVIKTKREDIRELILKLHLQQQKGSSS
# [2] = target: T2, Sentrin-specific protease 6 (Homo sapiens, UniProt Q9GZR1); assay type: functional;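 also: Luminescence-based dose-response confirmatory assay of SENP6 inhibition, following up an ultra-high-throughput screen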
# T2 sequence (Q9GZR1 whole entry): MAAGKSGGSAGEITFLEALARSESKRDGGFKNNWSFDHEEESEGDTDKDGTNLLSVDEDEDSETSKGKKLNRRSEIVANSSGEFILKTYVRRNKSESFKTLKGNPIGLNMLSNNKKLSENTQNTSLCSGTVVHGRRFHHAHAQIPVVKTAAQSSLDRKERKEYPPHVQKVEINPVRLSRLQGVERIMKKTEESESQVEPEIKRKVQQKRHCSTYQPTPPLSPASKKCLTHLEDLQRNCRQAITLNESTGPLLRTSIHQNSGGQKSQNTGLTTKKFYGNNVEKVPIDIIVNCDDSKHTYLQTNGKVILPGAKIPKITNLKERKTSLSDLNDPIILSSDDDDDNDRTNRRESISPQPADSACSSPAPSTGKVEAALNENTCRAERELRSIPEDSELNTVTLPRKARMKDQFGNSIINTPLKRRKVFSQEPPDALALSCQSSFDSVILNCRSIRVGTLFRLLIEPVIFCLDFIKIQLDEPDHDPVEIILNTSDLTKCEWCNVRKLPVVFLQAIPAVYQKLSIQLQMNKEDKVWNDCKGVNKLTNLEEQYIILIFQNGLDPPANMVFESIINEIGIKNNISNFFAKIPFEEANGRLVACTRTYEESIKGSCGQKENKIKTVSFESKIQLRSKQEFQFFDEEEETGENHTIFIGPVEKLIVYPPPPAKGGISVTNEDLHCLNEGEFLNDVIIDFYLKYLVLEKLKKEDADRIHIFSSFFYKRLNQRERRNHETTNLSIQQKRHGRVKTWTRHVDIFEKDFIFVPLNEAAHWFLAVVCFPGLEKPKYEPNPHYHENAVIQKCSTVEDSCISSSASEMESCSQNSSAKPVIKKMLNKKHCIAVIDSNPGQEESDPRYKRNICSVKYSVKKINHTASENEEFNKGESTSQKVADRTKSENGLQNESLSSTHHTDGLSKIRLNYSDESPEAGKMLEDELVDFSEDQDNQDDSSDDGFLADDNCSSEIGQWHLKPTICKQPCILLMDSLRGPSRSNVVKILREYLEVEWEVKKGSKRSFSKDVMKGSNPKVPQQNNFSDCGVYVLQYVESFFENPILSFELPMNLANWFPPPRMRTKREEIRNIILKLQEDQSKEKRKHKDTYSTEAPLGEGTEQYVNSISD
# [3] = target: T3, Microphthalmia-associated transcription factor (Homo sapiens, UniProt O75030); assay: reducers of TRPM1 reporter luminescence, concentration series – cell-based, SK-MEL-5, cherry-picked, set 3, MITF inhibitor project, dose response (AID 493073); assay type: functional;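 also: SK-MEL-5 melanoma cells with luciferase driven by the MITF target TRPM1 promoter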
# T3 sequence (O75030 whole entry): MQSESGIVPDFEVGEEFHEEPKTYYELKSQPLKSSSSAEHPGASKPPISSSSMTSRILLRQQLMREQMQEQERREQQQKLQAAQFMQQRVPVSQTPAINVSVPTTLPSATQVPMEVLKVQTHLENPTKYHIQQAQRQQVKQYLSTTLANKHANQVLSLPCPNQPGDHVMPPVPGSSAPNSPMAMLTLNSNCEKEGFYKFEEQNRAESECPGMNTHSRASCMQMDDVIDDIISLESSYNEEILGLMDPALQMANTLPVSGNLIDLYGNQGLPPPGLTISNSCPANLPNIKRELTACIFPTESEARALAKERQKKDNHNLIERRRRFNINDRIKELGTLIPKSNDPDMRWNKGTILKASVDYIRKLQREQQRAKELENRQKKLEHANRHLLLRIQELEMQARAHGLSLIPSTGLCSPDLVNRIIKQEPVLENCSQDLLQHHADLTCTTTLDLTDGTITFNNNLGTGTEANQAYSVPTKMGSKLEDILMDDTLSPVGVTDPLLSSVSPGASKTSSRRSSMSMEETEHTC
# BJ = assay: BJ-TERT fibroblast viability loss – cell-based, RAS-independent, luminescence, dose response (AID 1933); assay type: functional; conditions: Homo sapiens
# [4] = Trypanosoma cruzi growth suppression in host cells – NIH3T3 host cells, beta-gal luminescence, confirmation (AID 2044); assay type: functional, cell-based;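 also: intracellular parasites grown in NIH/3T3 mouse fibroblasts as host cells; luminescent beta-galactosidase reporter signal from transgenic T. cruzi replicating inside host cells; inhibitors lower the luminescence signal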
# [5] = target: Protein kinase C theta type (Homo sapiens, UniProt Q04759); assay: Navigating the Kinome. Panel member name: PRKCQ; assay type: functional
# [6] = target: Leucine-rich repeat serine/threonine-protein kinase 2 (Homo sapiens, UniProt Q5S007); assay type: functional;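 also: value from a broad kinome-wide panel profiling study in which LRRK2 was one of the kinases tested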
# [7] = target: Tyrosine-protein kinase Fyn (Homo sapiens, UniProt P06241); assay type: functional
# [8] = target: Macrophage colony-stimulating factor 1 receptor (Homo sapiens, UniProt P07333); assay type: functional;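 also: value comes from the Navigating the Kinome screening panel, CSF1R member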
# Chain of Macrophage colony-stimulating factor 1 receptor (P07333 whole entry): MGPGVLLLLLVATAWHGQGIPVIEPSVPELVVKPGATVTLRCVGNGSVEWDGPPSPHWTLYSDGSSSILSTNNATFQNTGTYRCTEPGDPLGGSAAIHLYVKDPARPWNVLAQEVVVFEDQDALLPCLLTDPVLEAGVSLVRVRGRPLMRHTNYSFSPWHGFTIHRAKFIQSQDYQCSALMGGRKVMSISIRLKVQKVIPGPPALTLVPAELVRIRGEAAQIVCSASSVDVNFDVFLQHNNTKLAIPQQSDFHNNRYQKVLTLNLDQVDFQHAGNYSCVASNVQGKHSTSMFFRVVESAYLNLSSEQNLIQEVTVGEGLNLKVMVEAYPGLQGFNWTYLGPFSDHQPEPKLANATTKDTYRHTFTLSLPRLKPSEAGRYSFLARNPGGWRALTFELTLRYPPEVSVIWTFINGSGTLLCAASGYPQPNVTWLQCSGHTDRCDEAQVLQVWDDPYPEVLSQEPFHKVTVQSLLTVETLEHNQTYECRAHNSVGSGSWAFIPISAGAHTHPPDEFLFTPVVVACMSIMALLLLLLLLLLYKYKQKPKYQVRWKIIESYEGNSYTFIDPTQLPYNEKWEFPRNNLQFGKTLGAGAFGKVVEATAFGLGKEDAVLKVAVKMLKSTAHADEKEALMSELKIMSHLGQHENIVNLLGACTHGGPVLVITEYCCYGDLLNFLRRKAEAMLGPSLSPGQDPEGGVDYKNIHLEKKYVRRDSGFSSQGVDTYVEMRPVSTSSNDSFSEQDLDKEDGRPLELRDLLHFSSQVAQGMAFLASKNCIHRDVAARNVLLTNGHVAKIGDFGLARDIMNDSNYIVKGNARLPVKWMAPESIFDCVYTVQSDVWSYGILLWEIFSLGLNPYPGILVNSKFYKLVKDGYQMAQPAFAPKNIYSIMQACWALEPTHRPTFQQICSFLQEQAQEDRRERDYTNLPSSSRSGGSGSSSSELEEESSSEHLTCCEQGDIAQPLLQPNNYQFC
# Chain of Protein kinase C theta type (Q04759 whole entry): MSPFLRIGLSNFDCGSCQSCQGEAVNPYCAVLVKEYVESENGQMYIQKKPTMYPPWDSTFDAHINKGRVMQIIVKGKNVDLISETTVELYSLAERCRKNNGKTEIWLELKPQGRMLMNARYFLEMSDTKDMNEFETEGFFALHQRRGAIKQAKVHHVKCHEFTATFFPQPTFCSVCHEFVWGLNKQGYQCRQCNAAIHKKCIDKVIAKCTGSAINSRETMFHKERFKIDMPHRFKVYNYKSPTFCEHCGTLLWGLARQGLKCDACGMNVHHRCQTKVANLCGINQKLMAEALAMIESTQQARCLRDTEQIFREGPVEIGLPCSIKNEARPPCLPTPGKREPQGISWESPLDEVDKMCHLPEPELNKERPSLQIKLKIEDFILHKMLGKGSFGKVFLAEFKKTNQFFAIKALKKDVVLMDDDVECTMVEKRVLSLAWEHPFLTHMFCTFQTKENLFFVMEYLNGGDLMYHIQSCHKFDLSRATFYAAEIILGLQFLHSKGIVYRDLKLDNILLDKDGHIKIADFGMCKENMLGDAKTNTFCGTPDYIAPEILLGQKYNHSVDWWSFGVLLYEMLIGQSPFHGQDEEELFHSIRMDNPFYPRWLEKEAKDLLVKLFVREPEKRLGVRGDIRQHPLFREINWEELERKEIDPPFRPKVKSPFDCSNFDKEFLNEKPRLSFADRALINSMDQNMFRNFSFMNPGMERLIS
# Chain of Leucine-rich repeat serine/threonine-protein kinase 2 (Q5S007 whole entry): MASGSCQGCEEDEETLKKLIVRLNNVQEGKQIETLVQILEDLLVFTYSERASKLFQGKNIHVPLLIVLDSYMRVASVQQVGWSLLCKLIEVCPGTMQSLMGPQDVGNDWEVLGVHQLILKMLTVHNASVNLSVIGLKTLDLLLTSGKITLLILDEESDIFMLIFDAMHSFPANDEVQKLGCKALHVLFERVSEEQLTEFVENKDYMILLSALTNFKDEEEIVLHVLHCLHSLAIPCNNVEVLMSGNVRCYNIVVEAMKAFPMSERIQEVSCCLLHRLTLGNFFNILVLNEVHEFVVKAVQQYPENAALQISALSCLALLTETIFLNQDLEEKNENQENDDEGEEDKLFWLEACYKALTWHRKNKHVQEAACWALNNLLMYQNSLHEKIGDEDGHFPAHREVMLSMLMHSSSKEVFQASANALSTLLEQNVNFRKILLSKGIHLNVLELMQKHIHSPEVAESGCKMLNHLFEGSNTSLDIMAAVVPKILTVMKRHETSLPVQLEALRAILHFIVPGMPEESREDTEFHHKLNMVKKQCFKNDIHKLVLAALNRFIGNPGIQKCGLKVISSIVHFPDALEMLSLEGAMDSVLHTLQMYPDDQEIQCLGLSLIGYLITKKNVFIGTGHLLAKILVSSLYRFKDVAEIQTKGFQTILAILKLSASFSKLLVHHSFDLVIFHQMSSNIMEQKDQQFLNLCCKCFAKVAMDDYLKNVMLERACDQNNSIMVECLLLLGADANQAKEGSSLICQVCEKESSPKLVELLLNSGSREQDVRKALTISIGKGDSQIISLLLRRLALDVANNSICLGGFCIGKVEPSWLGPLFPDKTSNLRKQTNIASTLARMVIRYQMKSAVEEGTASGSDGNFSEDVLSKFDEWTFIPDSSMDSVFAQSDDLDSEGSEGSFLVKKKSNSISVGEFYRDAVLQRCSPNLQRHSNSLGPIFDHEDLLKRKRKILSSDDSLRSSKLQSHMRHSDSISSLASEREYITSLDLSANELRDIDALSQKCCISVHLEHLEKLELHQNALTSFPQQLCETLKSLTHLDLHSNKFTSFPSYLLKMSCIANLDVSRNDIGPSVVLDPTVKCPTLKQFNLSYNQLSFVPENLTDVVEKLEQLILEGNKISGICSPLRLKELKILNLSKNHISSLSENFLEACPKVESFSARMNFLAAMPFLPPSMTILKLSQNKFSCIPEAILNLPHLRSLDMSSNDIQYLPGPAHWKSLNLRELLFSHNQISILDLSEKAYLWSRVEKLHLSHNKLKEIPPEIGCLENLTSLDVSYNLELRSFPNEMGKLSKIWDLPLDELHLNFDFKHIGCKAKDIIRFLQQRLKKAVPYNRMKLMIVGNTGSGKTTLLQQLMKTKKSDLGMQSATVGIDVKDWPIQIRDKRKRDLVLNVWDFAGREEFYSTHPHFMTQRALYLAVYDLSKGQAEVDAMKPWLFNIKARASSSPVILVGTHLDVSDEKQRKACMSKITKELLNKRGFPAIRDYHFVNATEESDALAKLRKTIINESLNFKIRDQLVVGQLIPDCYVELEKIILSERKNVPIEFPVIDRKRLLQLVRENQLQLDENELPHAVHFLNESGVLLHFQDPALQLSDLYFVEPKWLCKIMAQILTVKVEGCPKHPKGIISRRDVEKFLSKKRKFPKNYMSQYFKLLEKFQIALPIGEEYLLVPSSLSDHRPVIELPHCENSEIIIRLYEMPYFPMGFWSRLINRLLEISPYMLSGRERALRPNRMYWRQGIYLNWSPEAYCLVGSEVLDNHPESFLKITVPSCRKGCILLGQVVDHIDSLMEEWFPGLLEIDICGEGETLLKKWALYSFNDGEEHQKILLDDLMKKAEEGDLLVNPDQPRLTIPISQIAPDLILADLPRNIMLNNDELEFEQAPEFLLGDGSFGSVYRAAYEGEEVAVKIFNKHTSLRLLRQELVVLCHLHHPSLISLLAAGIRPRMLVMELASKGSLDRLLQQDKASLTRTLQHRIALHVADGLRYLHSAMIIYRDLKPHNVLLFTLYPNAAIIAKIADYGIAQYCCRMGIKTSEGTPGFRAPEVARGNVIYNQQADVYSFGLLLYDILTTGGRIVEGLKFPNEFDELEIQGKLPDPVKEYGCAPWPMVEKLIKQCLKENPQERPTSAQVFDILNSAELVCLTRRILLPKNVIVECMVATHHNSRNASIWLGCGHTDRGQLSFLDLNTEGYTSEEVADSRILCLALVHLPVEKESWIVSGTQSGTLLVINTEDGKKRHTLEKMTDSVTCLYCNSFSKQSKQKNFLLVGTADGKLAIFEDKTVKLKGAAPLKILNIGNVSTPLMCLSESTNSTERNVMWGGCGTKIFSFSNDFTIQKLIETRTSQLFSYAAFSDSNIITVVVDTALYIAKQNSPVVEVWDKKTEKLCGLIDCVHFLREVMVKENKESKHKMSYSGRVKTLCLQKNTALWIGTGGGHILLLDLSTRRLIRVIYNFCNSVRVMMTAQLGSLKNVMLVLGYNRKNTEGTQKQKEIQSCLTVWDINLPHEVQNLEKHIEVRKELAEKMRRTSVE
# Chain of Tyrosine-protein kinase Fyn (P06241 whole entry): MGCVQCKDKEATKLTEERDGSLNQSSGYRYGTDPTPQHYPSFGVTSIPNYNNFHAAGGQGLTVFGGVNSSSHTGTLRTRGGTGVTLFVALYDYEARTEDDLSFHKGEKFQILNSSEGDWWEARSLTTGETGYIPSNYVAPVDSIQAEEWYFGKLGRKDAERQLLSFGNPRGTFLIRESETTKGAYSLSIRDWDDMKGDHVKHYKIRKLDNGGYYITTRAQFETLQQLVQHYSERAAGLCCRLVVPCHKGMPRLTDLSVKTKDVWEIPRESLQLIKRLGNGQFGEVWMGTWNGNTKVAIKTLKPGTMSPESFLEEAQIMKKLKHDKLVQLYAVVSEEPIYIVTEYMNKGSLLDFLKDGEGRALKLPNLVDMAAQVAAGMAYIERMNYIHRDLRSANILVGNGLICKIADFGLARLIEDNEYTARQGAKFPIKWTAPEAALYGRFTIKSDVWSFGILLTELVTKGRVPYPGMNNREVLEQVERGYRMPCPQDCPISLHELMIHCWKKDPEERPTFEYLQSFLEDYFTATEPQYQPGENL
Structure (SMILES),IC50 [1],IC50 [2],EC50 (BJ),other results
CCc1cc[n+](C2=C([N-]S(=O)(=O)c3cccs3)C(=O)c3ccccc3C2=O)cc1,8.3 µM (active),3.57 µM (active),,AC50 [3]: 1.15 µM (active)
O=C(NC1=C(NC2CCS(=O)(=O)C2)C(=O)c2ccccc2C1=O)c1ccccc1 (configuration not stated),,,11 µM (inconclusive),
CCCC(=O)NC(c1ccc(N(C)C)cc1)c1ccc2cccnc2c1O (configuration not stated),,,2.5 µM (active),EC50 [4]: 0.48 µM (active)
O=C1NC(=O)C(c2c[nH]c3ccccc23)=C1c1nc(N2CCNCC2)nc2ccccc12,,,,Ki [5]: 0.000316 µM (active); Ki [6]: 0.398 µM (active); Ki [7]: > 6.31 µM (inactive); Ki [8]: > 2.51 µM (inactive)
COc1ccccc1N(/N=C1\Sc2ccccc2C1=O)C(C)=O,6.78 µM (active),4.28 µM (active),,
